What all share (assay type): physicochemical
A short description of series [1]: Dynamic vapor sorption - stability of solid form. The settings on record: 25°C, humidity cycles 0-95% RH. Here is the method: Vapour sorption experiments were performed in the instrument SPSx-1µ (Projekt Messtechnik, Ulm, Germany) at temperature of 25°C and the humidity cycles as shown below. Humidity cycle conditions: [table]
Series [2] is described as follows: Solubility in aqueous solvents. As to conditions: for Solubility: 37°C. Here is the method:
Approx. 340 mg (exactly weighed) test substance was weighed into a glass vial, followed by addition of 2.5 ml solvent. A stirring bar was added, the vial was fixed in a block heater at 37°C and the suspension was stirred with approx. 250 rpm. After 15 min and 1 h, samples were withdrawn, filtered through a 0.2 µm disposable filter, 50 µl of the clear filtrate were diluted with 950 µl DMSO and 2 µl thereof were analyzed by HPLC/UV.

A short description of series [3]: Long term stability of solid form at 40°C/75%r.h.

Converted amounts (≈) assume the structure as drawn.

By Solubility is commonly meant the concentration that dissolves in the medium under given conditions. The term solubility denotes the concentration that dissolves in the medium under given conditions. Regarding `CN(C)C(=O)c1cc2cnc(Nc3ccc(N4CCNCC4)cn3)nc2n1C1CCCC1` [Form 7, 7-cyclopentyl-N,N-dimethyl-2-((5-(piperazin-1-yl)pyridin-2-yl)amino)-7H-pyrrolo[2,3-d]pyrimidine-6-carboxamide], in series [1], the “Stability of solid form (in DVS)” value is reported as “stable”. Besides, the Solubility in series [2] (0.01 N HCl ∼pH2.2, 15 min, listed as RBC free base form 7) amounted to 3100 µg/mL (≈ 7.13 mM); in series [2] (0.01 N HCl ∼pH2.2, 1 h, listed as RBC free base form 7), 3000 µg/mL (≈ 6.9 mM); in series [2] (20mM NaAc pH4.5, 15 min, listed as RBC free base form 7), 11300 µg/mL (≈ 26 mM); in series [2] (50mM KH2PO4 pH6.5 + 2%TPGS, 15 min, listed as RBC free base form 7) it was 800 µg/mL; in series [2] (50mM KH2PO4 pH6.5 + 2%TPGS, 1 h, listed as RBC free base form 7), 800 µg/mL; in series [2] (50mM KH2PO4 pH6.8, 15 min, listed as RBC free base form 7), 500 µg/mL (≈ 1.15 mM). This compound also registered a Solubility in series [2] (50mM KH2PO4 pH6.8, 1 h, listed as RBC free base form 7) of 1100 µg/mL (≈ 2.53 mM). In series [2] (20 mM sodium acetate buffer, 37 °C, pH 4.5, aqueous buffer, thermodynamic from solid, 20mM NaAc pH4.5, 1 h), this compound came in with a solubility at 1 h of 11500 µg/mL (≈ 26.5 mM). In series [3], the “Long term stability at 40°C/75%r.h. (4 weeks)” value is “stable”. Moreover, the “Long term stability at 40°C/75%r.h. (12 weeks)” value in series [3] is recorded as “stable”.
In the case of `CN(C)C(=O)c1cc2cnc(Nc3ccc(N4CCNCC4)cn3)nc2n1C1CCCC1` [Form 8, 7-cyclopentyl-N,N-dimethyl-2-((5-(piperazin-1-yl)pyridin-2-yl)amino)-7H-pyrrolo[2,3-d]pyrimidine-6-carboxamide], the Solubility in series [2] (0.01 N HCl ∼pH2.2, 15 min, listed as RBC free base form 8) was 4000 µg/mL (≈ 9.2 mM); in series [2] (0.01 N HCl ∼pH2.2, 1 h, listed as RBC free base form 8) it was 1000 µg/mL (≈ 2.3 mM); in series [2] (50mM KH2PO4 pH6.5 + 2%TPGS, 15 min, listed as RBC free base form 8) it was 3900 µg/mL; in series [2] (50mM KH2PO4 pH6.5 + 2%TPGS, 1 h, listed as RBC free base form 8) it was 900 µg/mL. In addition, in series [3], the “Long term stability at 40°C/75%r.h. (4 weeks)” value was “stable”. The “Long term stability at 40°C/75%r.h. (12 weeks)” value in series [3] is “stable”.
For the compound `CN(C)C(=O)c1cc2cnc(Nc3ccc(N4CCNCC4)cn3)nc2n1C1CCCC1` [Form 1, 7-cyclopentyl-N,N-dimethyl-2-((5-(piperazin-1-yl)pyridin-2-yl)amino)-7H-pyrrolo[2,3-d]pyrimidine-6-carboxamide], the “Stability of solid form (in DVS)” value in series [1] was “stable”. For the same compound, the Solubility in series [2] (0.01 N HCl ∼pH2.2, 15 min, listed as RBC free base form 1) came out at 3800 µg/mL (≈ 8.74 mM); in series [2] (0.01 N HCl ∼pH2.2, 1 h, listed as RBC free base form 1) it was 3400 µg/mL (≈ 7.82 mM); in series [2] (20mM NaAc pH4.5, 1 h, listed as RBC free base form 1), 14200 µg/mL (≈ 32.7 mM); in series [2] (50mM KH2PO4 pH6.5 + 2%TPGS, 15 min, listed as RBC free base form 1) it was 3600 µg/mL; in series [2] (50mM KH2PO4 pH6.5 + 2%TPGS, 1 h, listed as RBC free base form 1), 1500 µg/mL; in series [2] (50mM KH2PO4 pH6.8, 15 min, listed as RBC free base form 1), 1500 µg/mL (≈ 3.45 mM). Moreover, the Solubility in series [2] (50mM KH2PO4 pH6.8, 1 h, listed as RBC free base form 1) amounted to 1600 µg/mL (≈ 3.68 mM). Further, the solubility at 15 min in series [2] (20 mM sodium acetate buffer, 37 °C, pH 4.5, aqueous buffer, thermodynamic from solid, 20mM NaAc pH4.5, 15 min) stood at 14200 µg/mL (≈ 32.7 mM). Also, the “Long term stability at 40°C/75%r.h. (4 weeks)” value in series [3] is listed as “stable”. Also, in series [3], the “Long term stability at 40°C/75%r.h. (12 weeks)” value is recorded as “stable”.
As to `CN(C)C(=O)c1cc2cnc(Nc3ccc(N4CCNCC4)cn3)nc2n1C1CCCC1` [Form 4, 7-cyclopentyl-N,N-dimethyl-2-((5-(piperazin-1-yl)pyridin-2-yl)amino)-7H-pyrrolo[2,3-d]pyrimidine-6-carboxamide, reference compound], the “Stability of solid form (in DVS)” value in series [1] was “Unstable at RT and ambient conditions”.
On to `CN(C)C(=O)c1cc2cnc(Nc3ccc(N4CCNCC4)cn3)nc2n1C1CCCC1` [Form 6, 7-cyclopentyl-N,N-dimethyl-2-((5-(piperazin-1-yl)pyridin-2-yl)amino)-7H-pyrrolo[2,3-d]pyrimidine-6-carboxamide], for which the “Stability of solid form (in DVS)” value in series [1] is on record as “stable”. The Solubility in series [2] (0.01 N HCl ∼pH2.2, 15 min, listed as RBC free base form 6) worked out at 400 µg/mL (≈ 0.92 mM); in series [2] (0.01 N HCl ∼pH2.2, 1 h, listed as RBC free base form 6), 200 µg/mL (≈ 0.46 mM); in series [2] (20mM NaAc pH4.5, 15 min, listed as RBC free base form 6) it was 12200 µg/mL (≈ 28.1 mM); in series [2] (20mM NaAc pH4.5, 1 h, listed as RBC free base form 6), 9700 µg/mL (≈ 22.3 mM); in series [2] (50mM KH2PO4 pH6.5 + 2%TPGS, 15 min, listed as RBC free base form 6) it was 2800 µg/mL; in series [2] (50mM KH2PO4 pH6.5 + 2%TPGS, 1 h, listed as RBC free base form 6), 2400 µg/mL. The Solubility in series [2] (50mM KH2PO4 pH6.8, 15 min, listed as RBC free base form 6) worked out at 1200 µg/mL (≈ 2.76 mM); in series [2] (50mM KH2PO4 pH6.8, 1 h, listed as RBC free base form 6), 500 µg/mL (≈ 1.15 mM). For the same compound, in series [3], the “Long term stability at 40°C/75%r.h. (4 weeks)” value is “stable”. For the same compound, the “Long term stability at 40°C/75%r.h. (12 weeks)” value in series [3] is “stable”.

The values above are taken from patent EP3156406A1, “CRYSTALLINE FORMS OF RIBOCICLIB FREE BASE” (ratiopharm GmbH, priority 2015, dated 2017).
